Test results taken from patent US20110245323A1, “RIG-Like Helicase Innate Immunity Inhibits VEGF-Induced Tissue Responses” (Yale University, priority 2006, published 2011).

Experiments:
Format in all cases: in vivo, mouse
[1] = system: CC10-rtTA-VEGF165 transgenic mice; test: VEGF-induced mucus metaplasia (PAS staining, BAL MUC5AC); conditions: for VEGF-induced mucus metaplasia (PAS stains, BAL MUC5AC accumulation): vs vehicle
Description: To define the effects of Poly(I:C) a number of protocols were employed. In most experiments, a pretreatment-2 week protocol was employed. In these experiments, WT and Tg+ mice were treated with Poly(I:C) (30 μg in 50 lambda unless otherwise indicated; Amersham Biosciences, N.J.) or vehicle control via nasal aspiration and transgene activation was accomplished via the administration of dox (0.5 mg/ml) in the animal's drinking water 24 hours later. The Poly(I:C) was administered every other day and the dox was administered continuously for up to 2 weeks.
Lastly, in selected experiments post-transgene activation protocols were employed. In these experiments dox was administered for 2 days or 2 weeks. The Poly(I:C) was then administered via intranasal aspiration every other day for 2 weeks as disclosed elsewhere herein. In selected pre-treatment and post-transgene activation experiments, unmethylated CpG (CpG-B) (Keck Center, Yale University) was also employed at similar doses. At the end of these intervals, assessments of angiogenesis (anti-CD31 immunohistochemistry), vascular permeability (Evan's blue dye extravasation, wet to dry lung weight measurements, BAL protein concentration), BAL and tissue inflammatory cell infiltration and mucus metaplasia (periodic acid-Schiff (PAS) staining, MUC5AC immunoblotting) were undertaken. In all cases experiments were designed to compare Tg− and Tg+ mice on normal water and Tg− and Tg+ mice on dox water.
The lungs were removed en bloc as described elsewhere herein, inflated at 25 cm pressure with PBS containing 0.5% low melting point agarose gel, fixed in Streck solution (Streck Laboratories, La Vista, Nebr.), embedded in paraffin, sectioned and stained. Hematoxylin and eosin and PAS stains were performed in the Research Histology Laboratory of the Department of Pathology at the Yale University School of Medicine. Pulmonary hemorrhage was evaluated by quantitating BAL red blood cell number with a Coulter counter (Beckman Coulter).
The levels of MUC5AC, the major airway mucin in BAL fluids, were assessed as previously described (Lee et al., 2008, Am J Respir Cell Mol Biol 39:739-746). In these evaluations, 0.1 ml of BAL fluid was slot blotted onto nitrocellulose membranes using a Minifold II slot blot apparatus (Schleicher & Schuell). After air-drying, the membrane was blocked with 5% skim milk, washed three times and incubated overnight at 4° C. with a monoclonal antibody against Mucin-5AC (45M1; NeoMarkers, Union City, Calif.). After washing, the membranes were incubated for 1 hour at room temperature with horseradish peroxidase-conjugated anti-mouse immunoglobulin (Ig)-G (Pierce). Immunoreactive mucins were detected using a chemiluminescent procedure (ECL Plus Western blotting detection system, Amersham Biosciences) according to instructions from the manufacturer.

[2] = system: KC/CXCL1 and MIP-2/CXCL14; test: BAL neutrophil chemotactic chemokines by ELISA; conditions: Tg+ mice, pretreatment, 2 weeks
Description: ELISA and activity assay kits for IFNa and IFNβ analysis were purchased from PBL Biomedical Laboratories (Piscataway, N.J.). ELISAs for eotaxin/CCL11, MCP-1/CCL2, KC/CXCL1 and MIP-2/CXCL14 were obtained from R&D Systems (Minneapolis, Minn. USA). Each was performed according to the manufacturer's instructions.

[3] = system: Erk, FAK, Akt, and eNOS signaling pathways; test: VEGF signaling in lung (eNOS/iNOS mRNA, immunoblot of Erk, FAK, Akt, eNOS); conditions: Tg+ mice lung
Description: These experiments used antibodies specific for Akt or phosphorylated (p) Akt (Danvers Mass.), FAK or pFAK (BioSource, International; Camarillo Calif.), PI3K or pPI3K (Cell Signalling), eNOS and iNOS (Santa Cruz BioTechnology, Santa Cruz Calif., USA) and MUC-5AC (NeoMarkers; Fremont). Western blot analysis was performed using standard protocols and visualized using the ECL system (Amersham Biosciences; Piscataway, N.J.).
Total RNA was isolated from fresh mouse lung with TRIzol reagent (Invitrogen; Carlsbad, Calif.) following the manufacturer's instructions. Quantification of mouse lung mRNA was performed by quantitative real-time PCR using ABI 7500 fast real-time PCR system (Applied Biosystems; Foster City, Calif.) and power SYBR green PCR master mix kit with appropriately specific primers (Applied Biosystems; Foster City, Calif.).
Lung lysates were subjected to immunoblot analysis using antibodies against phosphorylated (p) p-Erk, total Erk, p-Fak; total FAK; p-Akt, total Akt, peNOS and total eNOS (Cell Signaling, Beverly Mass.).

polyinosinic-polycytidylic acid [Poly(I:C)]
VEGF-stimulated mucus secretion ([1]; Tg+ mice, pretreatment): decreased
VEGF-induced mucus metaplasia (PAS stains, BAL MUC5AC accumulation) ([1]; Tg+ mice, pretreatment): inhibited
VEGF-induced mucus metaplasia (PAS stains, BAL MUC5AC accumulation) ([1]; Tg+ mice, pretreatment, listed as poly(I:C)): significantly decreased
VEGF-induced mucus metaplasia, delayed administration ([1]; given 48 hours or 14 days after dox-induced transgene activation): significant inhibition
lowest dose with significant inhibition of VEGF-induced mucus metaplasia ([1]; pretreatment): 5 µg
dose with maximal inhibition of VEGF-induced mucus metaplasia ([1]; pretreatment, highest dose tested): 30 µg
levels of KC/CXCL1 and MIP-2/CXCL14 in BAL [2]: significant increases
VEGF activation/phosphorylation of Erk, FAK, Akt and eNOS ([3]; 30 μg pretreatment, 2 weeks): significantly decreased
VEGF-induced eNOS and iNOS mRNA accumulation and AKT phosphorylation/activation ([3]; p<0.05): significant decrease
